Laboratory results from patent US9394284B2, “Compounds act at multiple prostaglandin receptors giving a general anti-inflammatory response” (Allergan, Inc., priority 2010, dated 2016).

How the values were obtained:
Assay type in all cases: cell-based
[1] = biological target: T1, human prostanoid TP receptor (Homo sapiens, UniProt P21731); test: FLIPR Ca2+ signaling antagonist assay, TP receptor stable cell line; conditions: HEK-293 EBNA stable cell line; standard agonist U-46619; NA = inactive (no antagonism or Kb 10,000 nM); PAg, Ag not defined
T1 construct: expressed in transfected cells
T1 sequence (P21731 1-343): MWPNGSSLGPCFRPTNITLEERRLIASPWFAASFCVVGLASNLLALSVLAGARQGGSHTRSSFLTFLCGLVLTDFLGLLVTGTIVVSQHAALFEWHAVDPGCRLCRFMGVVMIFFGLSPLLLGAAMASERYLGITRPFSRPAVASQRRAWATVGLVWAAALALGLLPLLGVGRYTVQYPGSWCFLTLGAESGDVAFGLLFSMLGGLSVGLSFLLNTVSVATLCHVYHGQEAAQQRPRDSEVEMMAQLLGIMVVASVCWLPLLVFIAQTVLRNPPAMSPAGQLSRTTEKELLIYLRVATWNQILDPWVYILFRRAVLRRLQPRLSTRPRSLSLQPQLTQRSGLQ
Outline: (§1)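 Peak Fluo-4 fluorescence (ex 470–495, em 515–575 nm) was read for 3.5 min on FLIPR after agonist injection and expressed relative to 10^−6 M standard agonist. Cells were HEK-293 EBNA transfectants. Test compound was added 4.5 min beforehand at 0.1–30 μM, or 0.067–1 μM for TP.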

[2] = biological target: T2, human prostanoid EP4 receptor (Homo sapiens, UniProt P35408); test: FLIPR Ca2+ signaling antagonist assay, EP4 receptor stable cell line; conditions: HEK-293 EBNA stable cell line; standard agonist PGE2; NA = inactive (no antagonism or Kb 10,000 nM); PAg, Ag not defined
T2 construct: expressed in transfected cells
T2 sequence (P35408 whole entry): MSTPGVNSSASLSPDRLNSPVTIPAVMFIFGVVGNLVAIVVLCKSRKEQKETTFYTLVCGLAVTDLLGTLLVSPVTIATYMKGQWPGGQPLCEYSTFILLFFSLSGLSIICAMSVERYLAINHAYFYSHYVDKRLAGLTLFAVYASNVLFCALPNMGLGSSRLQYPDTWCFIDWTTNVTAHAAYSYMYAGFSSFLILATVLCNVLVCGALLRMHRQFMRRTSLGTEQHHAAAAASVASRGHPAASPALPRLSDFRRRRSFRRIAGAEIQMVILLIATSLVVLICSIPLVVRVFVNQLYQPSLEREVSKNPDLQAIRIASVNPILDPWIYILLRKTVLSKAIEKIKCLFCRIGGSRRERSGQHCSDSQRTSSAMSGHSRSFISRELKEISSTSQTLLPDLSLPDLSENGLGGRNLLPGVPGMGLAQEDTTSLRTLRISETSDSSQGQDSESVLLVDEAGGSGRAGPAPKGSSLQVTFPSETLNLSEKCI
Outline: as §1

[3] = biological target: T3, human prostanoid EP1 receptor (Homo sapiens, UniProt P34995); test: FLIPR Ca2+ signaling antagonist assay, EP1 receptor stable cell line; conditions: HEK-293 EBNA stable cell line; standard agonist PGE2; NA = inactive (no antagonism or Kb 10,000 nM); PAg, Ag not defined
T3 construct: expressed in transfected cells
T3 sequence (P34995 1-402): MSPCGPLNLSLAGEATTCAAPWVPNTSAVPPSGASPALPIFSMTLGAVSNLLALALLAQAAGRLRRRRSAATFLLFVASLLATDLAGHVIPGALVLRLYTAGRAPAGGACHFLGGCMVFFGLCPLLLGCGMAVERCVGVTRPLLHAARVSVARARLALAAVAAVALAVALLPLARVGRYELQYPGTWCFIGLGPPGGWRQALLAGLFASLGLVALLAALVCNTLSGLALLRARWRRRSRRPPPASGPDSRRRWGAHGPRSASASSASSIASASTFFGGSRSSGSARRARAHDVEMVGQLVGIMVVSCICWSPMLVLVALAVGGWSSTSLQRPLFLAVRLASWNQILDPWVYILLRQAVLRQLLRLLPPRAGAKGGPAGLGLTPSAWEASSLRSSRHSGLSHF
Outline: as §1

[4] = biological target: T4, human prostanoid EP2 receptor (Homo sapiens, UniProt P43116); test: FLIPR Ca2+ signaling antagonist assay, EP2 receptor stable cell line; conditions: HEK-293 EBNA stable cell line; standard agonist PGE2; NA = inactive (no antagonism or Kb 10,000 nM); PAg, Ag not defined
T4 construct: expressed in transfected cells
T4 sequence (P43116 whole entry): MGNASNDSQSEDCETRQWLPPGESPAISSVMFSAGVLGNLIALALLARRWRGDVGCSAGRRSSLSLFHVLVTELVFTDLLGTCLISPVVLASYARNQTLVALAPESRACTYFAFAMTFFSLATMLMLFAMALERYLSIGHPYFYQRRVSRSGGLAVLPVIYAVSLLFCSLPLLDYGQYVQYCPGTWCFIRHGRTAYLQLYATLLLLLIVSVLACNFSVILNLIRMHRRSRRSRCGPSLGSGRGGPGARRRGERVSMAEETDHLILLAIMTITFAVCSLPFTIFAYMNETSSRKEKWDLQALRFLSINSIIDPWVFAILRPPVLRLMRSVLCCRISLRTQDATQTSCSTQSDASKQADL
Procedure: The above compounds were tested for PG antagonist activity as follows using human recombinant prostanoid receptor (DP1, EP1-4, FP, IP and TP) stable cell lines:
In order to measure the response of Gs and Gi coupled prostanoid receptors as a Ca^2+ signal, chimeric G protein cDNAs were used. Stable cell lines over-expressing human prostanoid DP1, EP1-4, FP, IP, and TP receptors were established as follows:
Briefly, human prostanoid DP1, EP2, and EP4 receptor cDNAs were co-transfected with chimeric Gqs cDNA containing a haemagglutanin (HA) epitope; human prostanoid EP3 receptors were co-transfected with chimeric Gqi-HA; human EP1, FP, IP, and TP receptor cDNAs were expressed with no exogenous G-proteins. Gqs and Gqi chimeric cDNAs (Molecular Devices, Sunnyvale, Calif., U.S.A.), as well as cDNAs of prostanoid receptors, were cloned into a pCEP4 vector with a hygromycin B selection marker. Transfection into HEK-293 EBNA (Epstein-Barr virus nuclear antigen) cells was achieved by the FuGENE 6 transfection Reagent (Roche Applied Science, Indianapolis, Ind., USA). Stable transfectants were selected according to hygromycin resistance. Because Gqs and Gqi contained an HA epitope, G-protein expression was detected by Western blotting analysis using anti-mouse HA monoclonal antibody and horseradish peroxidase (HRP)-conjugated secondary antibody, while functional expression of prostanoid receptors was detected by FLIPR screening (Matias et al., 2004). These stable cell lines were validated using previously published antagonists at 10 μM against serial dilutions of standard agonists by FLIPR functional assays for Ca^2+ Signaling (as described below).
Ca^2+ signaling studies were performed using a FLIPR TETRA system (Molecular Devices, Sunnyvale, Calif., USA) in the 384-format. This is a high-throughput instrument for cell-based assays to monitor Ca^2+ signaling associated with GPCRs and ion channels. Cells were seeded at a density of 5×10^4 cells/well in BioCoat poly-D-lysine coated, black wall, clear bottom 384-well plates (BD Biosciences, Franklin lakes, NJ, USA) and allowed to attach overnight in an incubator at 37° C. The cells were then washed twice with HBSS-HEPES buffer (Hanks' balanced salt solution without bicarbonate and phenol red, 20 mM HEPES, pH 7.4) using an ELx405 Select CW Microplate Washer (BioTek, Winooski, Vt., USA). After 60 min of dye-loading in the dark using the Ca^2+-sensitive dye Fluo-4AM (Invitrogen, Carlsbad, Calif., USA), at a final concentration of 2×10^−6M, the plates were washed 4 times with HBSS-HEPES buffer to remove excess dye and leaving 50 μl of buffer in each well. The plates were then placed in the FLIPR TETRA instrument and allowed to equilibrate at 37° C. AGN-211377 was added in a 25 μl volume to each well to give final concentrations of 0.1 μM, 0.3 μM, 1 μM, 3 μM, 10 μM, and 30 μM; or 0.067 μM, 0.1 μM, 0.2 μM, 0.3 μM, 0.67 μM, and 1 μM for cells over-expressing TP receptors. After 4.5 minutes, a 7-point serial dilution of the standard agonist for the corresponding receptor, in a 25 μl volume was injected at the final concentrations from 10^−11M to 10^−5M in 10-fold serial dilution increments for cells expressing human recombinant DP1, EP1, EP2, EP3, EP4, FP, and IP receptors. The dose range for the standard agonist for human recombinant TP receptors was from 10^−12 M to 10^−6 M. HBSS-HEPES buffer was used as the negative control for the standard agonists. Cells were excited with LED (light emitting diode) excitation at 470-495 nm and emission was measured through an emission filter at 515-575 nm. Assay plates were read for 3.5 minutes using the FLIPR^TETRA. The peak increase in fluorescence intensity was recorded for each well. On each plate, negative controls, dose response of positive controls, and co-treatments of antagonist-agonist for each dose were in triplicates.
Standard agonists were as follows: DP=BW 245C, EP1-EP4=PGE2, FP=17-phenyl-PGF2α, IP=Cicaprost, and TP=U-46619. […]

[5] = biological target: T5, human prostanoid IP receptor (Homo sapiens, UniProt P43119); test: FLIPR Ca2+ signaling antagonist assay, IP receptor stable cell line; conditions: HEK-293 EBNA stable cell line; standard agonist Cicaprost; NA = inactive (no antagonism or Kb 10,000 nM); PAg, Ag not defined
T5 construct: expressed in transfected cells
T5 sequence (P43119 whole entry): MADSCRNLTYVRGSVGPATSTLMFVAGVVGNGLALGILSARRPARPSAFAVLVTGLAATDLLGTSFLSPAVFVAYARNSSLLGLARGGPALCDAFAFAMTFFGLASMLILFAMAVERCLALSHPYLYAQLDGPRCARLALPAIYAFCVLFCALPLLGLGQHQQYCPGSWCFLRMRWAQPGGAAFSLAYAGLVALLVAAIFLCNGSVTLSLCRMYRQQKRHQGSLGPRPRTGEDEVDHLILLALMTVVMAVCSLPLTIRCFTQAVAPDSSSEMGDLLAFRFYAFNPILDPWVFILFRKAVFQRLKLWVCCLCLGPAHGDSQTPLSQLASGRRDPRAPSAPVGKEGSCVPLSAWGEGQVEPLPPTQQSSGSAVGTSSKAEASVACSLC
Outline: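 HEK-293 EBNA cells stably expressing receptor (EP3 co-expressed with chimeric Gqi; EP1, IP, TP without exogenous G protein), Fluo-4 loaded, read on FLIPR at 37° C. Antagonist added 4.5 min before standard agonist (EP1/EP3 PGE2, IP cicaprost 10^−11–10^−5 M; TP U-46619 10^−12–10^−6 M); antagonist 0.1–30 μM, TP 0.067–1 μM; peak fluorescence relative to 10^−6 M agonist.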

| SMILES | Kb [1] [nM] | Kb [2] [nM] | Kb [3] [nM] | Kb [4] [nM] | Kb [5] [nM] | TP (FLIPR) Kb [1] | IP (FLIPR) Kb [5] | EP2 (FLIPR) Kb [4] |
| --- | --- | --- | --- | --- | --- | --- | --- | --- |
| Cc1cc(CCC(=O)O)nn1Cc1cc(Cl)ccc1OCC(C)(C)C [Example 35, 3-[1-(5-Chloro-2-(2,2-dimethylropoxy)benzyl)-5-methyl-1H-pyrazol-3-yl]-propionic acid] | 20 | 500 | 100 | 3200 | 3700 |  |  |  |
| Cc1cc(CCC(=O)O)nn1Cc1cc(Cl)ccc1OCCCC(C)C [Example 40, 3-[1-(5-Chloro-2-(4-methylpentyloxy)benzyl)-5-methyl-1H-pyrazol-3-yl]-propionic acid] | 40 | 1700 | 200 | 1400 | 720 |  |  |  |
| Cc1cc(CCC(=O)O)nn1Cc1cc(OC(F)(F)F)ccc1OCC1CCCC1 [Example 50, 3-[1-(2-Cyclopentylmethoxy-5-trifluoromethoxy-benzyl)-5-methyl-1H-pyrazol-3-yl]-propionic acid] | 20 | 200 | 35 | 4500 | 1500 |  |  |  |
| CCC(CC)COc1ccc(Cl)cc1Cn1nc(CC(C)C(=O)O)cc1C (racemic) [Example 68, 3-{1-[5-Chloro-2-(2-ethyl-butoxy)-benzyl]-5-methyl-1H-pyrazol-3-yl}-2-methyl-propionic acid] | 16 | 130 | 70 | 45 | 5700 |  |  |  |
| Cc1cc(CCC(=O)O)nn1Cc1cc(OC(F)(F)F)ccc1OCc1ccc(Cl)cc1 [Example 51, 3-[1-[2-(4-Chloro-benzyloxy)-5-trifluoromethoxy-benzyl]-5-methyl-1H-pyrazol-3-yl]-propionic acid] |  | 7000 | 15 | 500 |  | Ag | PAg |  |
| Cc1cc(CCC(=O)NS(=O)(=O)C(F)(F)F)nn1Cc1cc(Cl)ccc1OCC1CCCC1 [Example 43, N-(3-[1-(5-Chloro-2-cyclopentylmethoxybenzyl)-5-methyl-1H-pyrazol-3-yl]-propionyl)C,C,C-trifluoromethanesulfon amide] | 2 | 80 | 6 |  | 800 |  |  | PAg |
| Cc1cc(CCC(=O)NS(=O)(=O)c2ccccc2)nn1Cc1cc(Cl)ccc1OCc1ccc(Cl)cc1 [Example 24, N-(3-[1-(5-Chloro-2-(4-chlorobenzyloxy)benzyl)-5-methyl-1H-pyrazol-3-yl]-propionyl)benzenesulfonamide] | 30 | 900 | 50 | 5500 | 1000 |  |  |  |
| Cc1cc(CCC(=O)O)nn1Cc1cc(C(F)(F)F)ccc1OCc1ccc(Cl)cc1 [Example 52, 3-[1-[2-(4-Chloro-benzyloxy)-5-trifluoromethyl-benzyl]-5-methyl-1H-pyrazol-3-yl]-propionic acid] |  | 1500 | 5 | 2200 |  | PAg | PAg |  |
